Laboratory results taken from EP0139358B1, “N6-substituted diarylalkyl adenosines, processes for their production and pharmaceutical compositions comprising the same” (priority 1983, dated 1985).
pEC50: −log10 of the molar value. Like-named read-outs stand apart in the source and are kept apart here.

How the values were obtained:
Swiss-Webster male mice [1] = assay: Mouse Activity and Screen Test (MAST): screen test (ST); format: in vivo; conditions: for Inhibition of screen test failure: percent of mice falling off the screen; for MAST ST LAD: lowest dose at which an A rating (60-100%) is achieved, screen test, intraperitoneally
Protocol: (§1) Treatments are administered intraperitoneally one hour prior to testing. […] Compounds are dissolved or suspended in 0.2% Methocel. Control animals are injected with Methocel.
The compounds are identified in the Examples.

conscious rat = assay: Antihypertensive evaluation (AHP3): aortic blood pressure and heart rate; format: in vivo; conditions: lowest dose tested at which a >10% reduction in blood pressure for four consecutive hours is achieved; conscious rat; read-out: AHP3 BP LAD
Description: […] EVALUATION (AHP3)
This test procedure is described in the following paragraphs.
A Method for the Direct Monitoring of Aortic Blood Pressure and Heart Rate from Conscious Rats
The continuous monitoring of pulsatile blood pressure (BP) from unrestrained conscious rats surgically equipped with polyethylene cannulas was accomplished by means of a computer assisted data capture scheme (CADCS). The absic elements of the methodology are the cannulation procedure and the CADCS.
Cannulation Procedure: Rats were anesthetized with Telazol (1:1 tiletamine HCI and zolazepam HCI); 20-40 mg/kg IM and the descending aorta exposed via a midline incision. Cannulas fabricated from polyethylene tubing were inserted into the aorta via an undersized puncture hole below the renal arteries. The puncture hole was made by a 23 G disposable needle with a section of the aorta clamped off above and below the puncture site. The cannulas, consisting of a PE100 (0.86 mm ID) body and a PE50 (0.58 mm ID) tip, were attached to a trocar, inserted through the psoas muscle, and passed subcutaneously along the midline of the back and externalized between the ears. The cannulas were anchored to the psoas muscle and between the scalulae (3-0 green braided suture). The midline incision was closed in two steps (muscle first, skin second) using continuous over-and over sutures (4-0 chronic). Each rat was then given penicillin 30,000 units subcutaneously (Penicillin G Procaine Sterile Suspension).
The rats were fitted with a harness-spring-swivel assembly designed to protect the cannula and to provide the rat relative freedom of movement. The harnesses were fabricated from nylon hook and loop tape cemented to a metal plate to which spring wires (18-8 stainless steel), were attached to brass swivels. Each polyethylene cannula was channeled through a spring and connected through a swivel to a pressure transducer (Model P23Gb; Statham Instruments; Hato Rey, Puerto Rico) and an infusion pump (Sage model 234-7; Orion Research, Cambridge, Ma) by means of PE100 tubing. While on test, each rat received a continuous slow infusion of heparinized saline solution (approximately 400 I or 40 units of heparin per 24 hour period) to prevent clot formation. Additional "flushes" of the cannula with heparinized saline were carried out when the aortic pulse pressure (systolic minus diastolic) was less than 25 mm Hg.
CADCS: The pulsatile blood pressure and heart rate of each of 32 rats was monitored every minute by means of two in-laboratory microcomputers communicating directly with a data concentrator computer. The data were first stored on the data concentrator disk and then transferred to a magnetic tape for analysis and report generation by the main research computer. The overall scheme involved modulating the primary signal from the pressure transducer, generating the primary data set of the one-minute values for systolic, diastolic, and mean blood pressures and heart rate by the in-lab microcomputer and the storage, analysis, and report generation by the main research computer.
The transducers were connected to analog signal conditioning modules. The modules providing a regulated excitation voltage for the transducers, amplification as required to interface the microprocessors and an active low pass filter to compensate for the pressure wave form distortion produced by the flexible, fluid filled, narrow cannula.
The microcomputers (one for each of two groups of 16 rats) were connected to the input components through the module interface units, an analog-to-digital converter for the pressure wave form signal and the digital inputs for the dose and event marker switches. The microcomputer controlled the sequential acquisition of data from the modular interface units through an internal synchronous time-of-day clock/ time base generator. […]

Swiss-Webster male mice [2] = assay: Mouse Activity and Screen Test (MAST): inhibition of spontaneous locomotion (LI); format: in vivo; conditions: for Inhibition of mouse locomotor activity: one hour prior to testing, vs vehicle; for minimal effective dose: Mus musculus, ip, read-out: MAST LI LAD
Protocol: as §1
Immediately following the screen test, the final phase of testing is initiated by placing each group of three mice in one actophotometer (Life Sciences, 22, 1067-1076, 1978). The actophotometer consists of a cylindrical chamber whose center is occupied by another cylinder which contains the illumination for six photocells located on the perimeter of the chamber. Six light-beam interruptions equal one count. Locomotor activity is recorded by computer at ten minute intervals for 60 minutes. […]

rat heart = assay: Coronary blood flow (PCS2A): isolated perfused heart; conditions: for pEC50: isolated perfused rat heart
Protocol: CORONARY BLOOD FLOW (PCS2A)
Male rats (400-600 gms) are pretreated with Na haparin 2000 units and anesthetized with Na pentobarbital (50 mg/kg) administered intraperitoneally. Once anesthetized, the rat heart is rapidly excised, the ascending aorta fitted to the aortic perfusion cannula, and […] with a ligature. The coronary arteries are perfused initially at a rate of about 15 ml/min for two to three minutes, afterwhich they are perfused at constant pressure of 70 mm Hg and temperature of 37°C. The electrocardiogram (ECG) is recorded using two platinum electrodes positioned at the base and apex of the left ventricle. A second heart is excised, cannulated, and perfused by the same method outlined above. Both hearts are tested in parallel. The standard physiological salt solution (PSS) is a modified Krebs-Hanseleit bicarbonate buffer of the following composition in mM concentration: NaCI, 127; NaHC03, 25; dextrose, 5.5; Na Pyruvate, 2.0: KCI, 4.7; MgS04, 1.1; KH 2P04, 1.2; CaCl2·2H2O, 2.5; CaNa2 EDTA, 0.05.
A 30-minute stabilization period is observed before starting the test protocol.
The microprocessor control system is a servo mechanism which permits coronary perfusion pressure (CPP) and drug concentration to be maintained constant independent of changes in coronary flow. The level at which CPP and drug concentration are maintained can be changed by commands communicated through the microprocessor keyboard. Dose-response curves are carried out by perfusing concentrated drug solution (DC) at rates proportional to total coronary flow (CFT). Drug concentrations are increased by proportionate increases in the rate of DC infusion over CFT via the microprocessor keyboard. The proportional flow rates for DC:CFT is about .0002:1 at the low end and .02: at the high end of the dose-response curve. Dose-response curves encompassing at least two log doses are carried out by preparing two DCs with a concentration difference of 1:100. Following the first dose range of two log doses, the DC are switched, proportional pumping rate adjusted, and the dose-response curve continued for another two log doses. The standard dose-response curve is carried out in one-half log dose increments starting at a subthreshold dose and ending at a dose which produces near maximal response in activity. Standard reference compounds are tested over the range of 10-^9 to 10-^6M.
Measurements are for heart rate (HR) and coronary flow (CF). Units are: HR, beats/minute (bpm) and CF, milliliters/minute (ml/min). HR is calculated from the ECG strip chart recording and CF is calculated by recording analog outputs from pumps 1 and 2. Outputs from pump #1 = CFT and the output from pump #2 = CF for heart B (CFg). CF for heart A (CFA) is calculated (CFT - CFB = CFA).
Using the above technique, the effects of the compound of Examples 1 and 2 are as follows: […]

[3] = coronary flow, read-out: PCS2A CF ED50
[4] = heart rate, read-out: PCS2A HR ED50

SMILES	MAST ST LAD (Swiss-Webster male mice [1])	pEC50 (rat heart; [3])	minimal effective dose (conscious rat)	minimal effective dose (Swiss-Webster male mice [2])	pEC50 (rat heart; [4])	other results
OC[C@H]1O[C@@H](n2cnc3c(NCC(c4ccccc4)c4ccc(F)cc4)nc(Cl)nc32)[C@H](O)[C@@H]1O (stereo partly shown) [Example 11, N^6-(2-(4-Fluorophenyl)-2-phenylethyl)-2-chloroadenosine]	>100 mg/kg	7.30	10 mg/kg	30 mg/kg	< 5.52	–
OC[C@H]1O[C@@H](n2cnc3c(NCC(c4ccc(F)cc4)c4ccc(F)cc4)ncnc32)[C@H](O)[C@@H]1O [Example 13, ^N'-(^2,2-Di-(4-fluorophenyl)ethyl)adenosine]	>100 mg/kg	–	10 mg/kg	3 mg/kg	–	–
Nc1nc(NCC(c2ccccc2)c2ccc(Cl)cc2)c2ncn([C@@H]3O[C@H](CO)[C@@H](O)[C@H]3O)c2n1 (stereo partly shown) [Example 16, N^6-(2-(4-Chlorophenyl)-2-phenylethyl)-2-aminoadenosine]	>100 mg/kg	–	> 10 mg/kg	100 mg/kg	–	–
OC[C@H]1O[C@@H](n2cnc3c(NCC(c4ccc(Cl)cc4)c4ccc(Cl)cc4)ncnc32)[C@H](O)[C@@H]1O [Example 17, N^6-(2,2-Di(4-chlorophenyl)ethyl)adenosine]	>100 mg/kg	< 5.52	–	100 mg/kg	< 5.52	–
Nc1nc(NCC(c2ccc(Cl)cc2)c2ccc(Cl)cc2)c2ncn([C@@H]3O[C@H](CO)[C@@H](O)[C@H]3O)c2n1 [Example 18, N^6-(2,2-Di-(4-chlorophenyl)ethyl)-2-aminoadenosine]	>30 mg/kg	–	> 10 mg/kg	> 30 mg/kg	–	–
COC(=O)C(CNc1ncnc2c1ncn2[C@@H]1O[C@H](CO)[C@@H](O)[C@H]1O)(c1ccccc1)c1ccccc1 [Example 24, N^s-(2-Carbomethoxy-2,2-diphenylethyl)adenosine]	>30 mg/kg	< 5.52	–	30 mg/kg	5.52	–
O=C(OC[C@H]1O[C@@H](n2cnc3c(NCC(c4ccccc4)c4ccccc4)ncnc32)[C@H](OC(=O)c2ccccc2)[C@@H]1OC(=O)c1ccccc1)c1ccccc1 [Example 26, 2',3',5'-Tri-0-benzoyl-N^6-(2,2-diphenylethyl)adenosine]	>100 mg/kg	–	10 mg/kg	10 mg/kg	–	–
CC(=O)OC[C@H]1O[C@@H](n2cnc3c(NCC(c4ccccc4)c4ccccc4)nc(Cl)nc32)[C@H](OC(C)=O)[C@@H]1OC(C)=O [Example 27, 2',3',5'-Tri-O-acetyl-N^6-(2,2-diphenylethyl)-2-chloroadenosine]	>100 mg/kg	–	–	30 mg/kg	–	–

Continued, in another order:

MAST ST LAD (Swiss-Webster male mice [1])	pEC50 (rat heart; [3])	SMILES	minimal effective dose (conscious rat)	minimal effective dose (Swiss-Webster male mice [2])	pEC50 (rat heart; [4])	other results
>100 mg/kg	5.52	OC[C@H]1O[C@@H](n2cnc3c(NCCC(c4ccccc4)c4ccccc4)ncnc32)[C@H](O)[C@@H]1O [Example 2, N^6-(3,3-Diphenylpropyl)adenosine]	> 30 mg/kg	100 mg/kg	5.22	Inhibition of screen test failure (Swiss-Webster male mice [1]; 10 mg/kg intraperitoneally): 0%; Inhibition of screen test failure (Swiss-Webster male mice [1]; 30 mg/kg intraperitoneally): 0%; Inhibition of screen test failure (Swiss-Webster male mice [1]; 100 mg/kg intraperitoneally): 0%; Inhibition of mouse locomotor activity (Swiss-Webster male mice [2]; 10 mg/kg intraperitoneally): −9%; Inhibition of mouse locomotor activity (Swiss-Webster male mice [2]; 30 mg/kg intraperitoneally): 13%; Inhibition of mouse locomotor activity (Swiss-Webster male mice [2]; 100 mg/kg intraperitoneally): 60%; activation at 1 µM (rat heart; Dose 1 × 10^-6 Molar, coronary flow change, isolated rat heart, read-out: CF): 47%; activation at 0.1 µM (rat heart; Dose 1 × 10^-7 Molar, coronary flow change, isolated rat heart, read-out: CF): 42%; activation at 0.01 µM (rat heart; Dose 1 × 10^-8 Molar, coronary flow change, isolated rat heart, read-out: CF): 26%; activation at 3 µM (rat heart; Dose 3 × 10^-6 Molar, coronary flow change, isolated rat heart, read-out: CF): 48%
>100 mg/kg	7.85	OC[C@H]1O[C@@H](n2cnc3c(NCCCC(c4ccccc4)c4ccccc4)ncnc32)[C@H](O)[C@@H]1O [Example 6, N^6-(4,4-Diphenylbutyl)adenosine]	> 30 mg/kg	100 mg/kg	< 6.00	–
>100 mg/kg	< 5.52	OC[C@H]1O[C@@H](n2cnc3c(NCCCCC(c4ccccc4)c4ccccc4)ncnc32)[C@H](O)[C@@H]1O [Example 7, N^6-(5,5-Diphenylpentyl)adenosine]	> 10 mg/kg	100 mg/kg	5.52	–
100 mg/kg	–	Cc1cccc(C(CNc2ncnc3c2ncn3[C@@H]2O[C@H](CO)[C@@H](O)[C@H]2O)c2ccccc2)c1 (stereo partly shown) [Example 9, N^6-(2-(3-Methylphenyl)-2-phenylethyl)adenosine]	–	≤ 10 mg/kg	–	–
>100 mg/kg	–	OC[C@H]1O[C@@H](n2cnc3c(NCC(c4ccccc4)c4cccc(Cl)c4)ncnc32)[C@H](O)[C@@H]1O (stereo partly shown) [Example 14, N^6-(2-(3-Chlorophenyl)-2-phenylethyl)adenosine]	–	1 mg/kg	–	–
>30 mg/kg	–	O=P(O)(O)OC[C@H]1O[C@@H](n2cnc3c(NCC(c4ccccc4)c4ccccc4)ncnc32)[C@H](O)[C@@H]1O [Example 28, N^6-(2,2-Diphenylethyl)adenosine-5'-phosphate]	–	≤ 3 mg/kg	–	–
>100 mg/kg	–	CC1(C)O[C@@H]2[C@H](O1)[C@@H](CO)O[C@H]2n1cnc2c(NCC(c3ccccc3)c3ccccc3)ncnc21 [Example 29, 2',3'-0-Isopropylidene-N6-(2,2-diphenylethyl)adenosine]	10 mg/kg	30 mg/kg	–	–
